# Laboratory results as given in ChEMBL document CHEMBL3862035, “In Silico Discovery and Validation of Amide Based Small Molecule Targeting the Enzymatic Site of Shiga Toxin” (J Med Chem, 2016).
# The source made the active and inactive calls. The calls are words filed in the database; no cut-off is given here.
# What was measured:
# [1] = Cytotoxicity against African green monkey Vero cells incubated for 24 hrs by neutral red uptake assay; assay type: toxicity, cell-based; conditions: chlorocebus sabaeus; for MNTC at 24 h: read-out: MTD
# [2] = target: T1, Shiga toxin subunit A (Shigella dysenteriae) (UniProt Q9FBI2)
# T1 sequence (whole entry): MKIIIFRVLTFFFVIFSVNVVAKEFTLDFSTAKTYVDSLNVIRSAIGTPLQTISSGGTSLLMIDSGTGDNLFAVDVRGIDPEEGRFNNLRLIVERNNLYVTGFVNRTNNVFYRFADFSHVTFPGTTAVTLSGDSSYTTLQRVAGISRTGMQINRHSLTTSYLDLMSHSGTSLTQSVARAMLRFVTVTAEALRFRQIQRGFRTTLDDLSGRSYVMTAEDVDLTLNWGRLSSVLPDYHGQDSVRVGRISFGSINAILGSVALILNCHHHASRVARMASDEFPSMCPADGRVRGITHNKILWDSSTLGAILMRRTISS
# [3] = Inhibition of Shigella dysenteriae type 2 Shiga toxin in African green monkey Vero cells assessed as inhibition of Stx-induced cytotoxicity incubated for 10 hrs by MTS/PMS assay; assay type: cell-based
# [4] = system: Mus musculus; assay: Inhibition of Shigella dysenteriae Shiga toxin-induced mortality in Balb/c mouse exposed to 5 x LD50 Shigella toxin assessed as increase in mouse survival at 2 mM, ip preincubated with Stx for 1 hr measured after 0 to 14 days; assay type: functional, organism-based
# [5] = system: Mus musculus; assay: Inhibition of Shigella dysenteriae Shiga toxin-induced mortality in Balb/c mouse exposed to 5 x LD50 Shigella toxin assessed as reduction in symptomatic effects of toxin at 2 mM, ip preincubated with Stx for 1 hr measured after 0 to 14 days; assay type: functional, organism-based
# [6] = system: Mus musculus; assay: Inhibition of Shigella dysenteriae Shiga toxin-induced mortality in Balb/c mouse exposed to 5 x LD50 Shigella toxin assessed as increase in mouse survival at 2 mM, ip dosed 1 hr before toxin injection measured after 24 to 48 hrs; assay type: functional, organism-based
# [7] = system: Mus musculus; assay: Inhibition of Shigella dysenteriae Shiga toxin-induced mortality in Balb/c mouse exposed to 5 x LD50 Shigella toxin assessed as increase in mouse survival at 2 mM, ip dosed 1 after toxin injection measured after 24 to 48 hrs; assay type: functional, organism-based
# [8] = system: Mus musculus; assay: Toxicity in Balb/c mouse at 2 mM, ip measured after 0 to 14 days; assay type: organism-based; conditions: in vivo, 2000 µM
smiles,measurement,setting,value
Nc1ncnc2c1ncn2[C@@H]1O[C@H](COP(=O)(O)O)[C@@H](O)[C@H]1O [ADENOSINE PHOSPHATE],MNTC at 24 h,[1],75 µM
O=C1NCN=C2NC=NC12 (centres undefined),MNTC at 24 h,[1],125 µM
same,ΔTm,[2],2.32 °C
c1ccc(SCCNCCN2CCCC2)cc1,MNTC at 24 h,[1],63.3 µM
same,IC50,[3],25 µM
Nc1ncnc2nn[nH]c12,MNTC at 24 h,[1],18.7 µM
O=C(/C=C/c1ccccc1)Nc1ccccc1O [N-(2-HYDROXYPHENYL)CINNAMAMIDE],MNTC at 24 h,[1],32 µM
Nc1ncc2[nH]cnc2n1 [2-AMINOPURINE],MNTC at 24 h,[1],125 µM
O=C(NCCNCCSc1ccccc1)c1ccc([N+](=O)[O-])cc1,inhibition,[4],Active
same,CC50 at 24 h,[1],177 µM
same,MNTC at 24 h,[1],15 µM
same,inhibition,[5],Active
same,inhibition,[6],Active
same,inhibition,[7],Active
same,Activity,[8],Non-Toxic
COc1ccc(/C=C/C(=O)c2ccccc2O)cc1,MNTC at 24 h,[1],7.35 µM
O=C1NC(=O)C2N=CNC2N1 (centres undefined),MNTC at 24 h,[1],9.3 µM
CCCCSCCNCCNP(=S)(OCC)OCC,MNTC at 24 h,[1],32.3 µM
same,IC50,[3],25 µM
CCCSCCNCCNC(=O)/C=C/c1ccccc1,inhibition,[4],Active
same,CC50 at 24 h,[1],123 µM
same,MNTC at 24 h,[1],38 µM
same,inhibition,[5],Active
same,inhibition,[6],Active
same,inhibition,[7],Active
same,Activity,[8],Non-Toxic
CC(=O)c1ccccc1NC(=O)c1ccc([N+](=O)[O-])cc1,MNTC at 24 h,[1],17.3 µM
O=C(/C=C/c1ccccc1)Oc1c(-c2ccccc2)oc2ccccc2c1=O,MNTC at 24 h,[1],64 µM
CC(=O)c1ccccc1NC(=O)c1ccc(F)cc1,MNTC at 24 h,[1],10 µM
Nc1ncnc2c1ncn2[C@@H]1O[C@H](CO)[C@@H](O)[C@H]1O [ADENOSINE],MNTC at 24 h,[1],125 µM
O=c1cc(-c2ccccc2F)[nH]c2ccccc12,MNTC at 24 h,[1],5 µM
Oc1ncnc2[nH]ncc12 [ALLOPURINOL],CC50 at 24 h,[1],428 µM
same,MNTC at 24 h,[1],250 µM
same,Activity,[8],Non-Toxic
same,ΔTm,[2],3.75 °C
O=C(/C=C\c1ccccc1)NCCO,MNTC at 24 h,[1],31.6 µM
O=C(NCCNCCSc1ccccc1)C1CCCCC1,MNTC at 24 h,[1],38 µM
"Nc1nc(N)c2[nH]cnc2n1 [2,6-DIAMINOPURINE]",MNTC at 24 h,[1],9.3 µM
Nc1ccncn1,MNTC at 24 h,[1],250 µM
O=C(/C=C/c1ccccc1F)c1ccccc1O,MNTC at 24 h,[1],5.67 µM
S=C1N=CN=C2NC=NC12 (centres undefined),MNTC at 24 h,[1],18.7 µM
CC(=O)c1ccccc1NC(=O)/C=C\c1ccccc1,inhibition,[4],Active
same,CC50 at 24 h,[1],29.7 µM
same,MNTC at 24 h,[1],6.96 µM
same,inhibition,[5],Active
same,inhibition,[6],Active
same,inhibition,[7],Active
same,Activity,[8],Non-Toxic
Nc1nc2nc[nH]c2c(=O)[nH]1 [GUANINE],CC50 at 24 h,[1],136 µM
same,MNTC at 24 h,[1],125 µM
same,Activity,[8],Non-Toxic
CCCSCCNCCNC(=O)c1ccc(Cl)cc1,MNTC at 24 h,[1],124 µM
O=C(/C=C/c1cccs1)c1ccccc1O,MNTC at 24 h,[1],17 µM
Nc1nc2[nH]cnc2c(=O)[nH]1,ΔTm,[2],4.45 °C
Cc1ncnc2nc[nH]c12,MNTC at 24 h,[1],9.3 µM
Cc1ccsc1-c1cc(=O)c2ccccc2[nH]1,MNTC at 24 h,[1],5.33 µM
Oc1cc(/C=C/c2ccccc2)nc2ccccc12,MNTC at 24 h,[1],9.33 µM
CC(=O)c1ccccc1NC(=O)c1ccccc1F,inhibition,[4],Active
same,CC50 at 24 h,[1],120 µM
same,MNTC at 24 h,[1],37 µM
same,inhibition,[5],Active
same,inhibition,[6],Active
same,inhibition,[7],Active
same,Activity,[8],Non-Toxic
